In a melting point compilation (Tetko et al.; mined from patent text by program, amines drawn as free bases though some values may be those of a salt) one finds melting point data, which are given here for 89 compounds.

`CC(C)Oc1ccccc1NC(=O)Nc1ccc2cnccc2n1` showed a melting point of 78 to 80 °C. The same measure for `CCCN(CCC)C1Cc2cc3c(cc2C1)C(=O)N(Cc1cccnc1)C3=O`: 141 to 146 °C. The same measure for `CCCc1c(OCCOc2ccc(C(=O)O)cc2)ccc(C(C)=O)c1O`: 175 to 176 °C; for `NC(=NO)c1cc2c(Oc3ccc(Cl)cc3)cncc2s1`: 194 to 196 °C. The same measure for `COC(=O)C(Cl)C(C)=NNS(=O)(=O)c1ccc(C)cc1` (centres undefined): 97 to 101 °C; for `C[C@@H](N[C@@H](CC(=O)N1CCn2c(nnc2C(F)(F)F)C1)Cc1cc(F)c(F)cc1F)c1ccccc1`: 128 °C. Compound `COCC1CCCN1Cc1ccc2cc(NC(=O)c3ccc(-c4ccc(Cl)cc4)cc3)ccc2n1` (centres undefined) had a melting point of 172 to 174 °C.

As to `O=C(Nc1ccc(N2CCNCC2)c(C(F)(F)F)c1)c1ccc(F)c(OCc2cnc3ccccc3c2)c1`, the melting point was 76 to 78 °C. `O=C1c2ccccc2C(=O)N1CC(Cc1ccc([N+](=O)[O-])cc1)=NO` yielded a melting point of 181 to 183 °C. The same measure for `COc1cc(O[C@@H](C)C(=O)O)c(Cl)cc1Cl`: 114 to 115 °C; for `Cc1ccc(S(=O)(=O)N2[C@@H](CCn3cccn3)CC[C@H]2c2ccc(F)cc2)cc1` (racemic): 121 °C; for `CC(=Nc1ccc(NC(=O)CN)cc1)N(C)C`: 142 to 145 °C. The same measure for `O=c1c2cccnc2sc(=Nc2ccccc2)n1Cc1ccccc1`: 105 to 106 °C; for `CCOC(=O)Nc1cc(N[C@H](C)C(=O)c2ccccc2)c([N+](=O)[O-])c(N)n1`: 150 to 155 °C. The same measure for `COc1ccc(-c2cc(NC(=O)CCCCBr)n[nH]2)cc1`: 150 to 152 °C; for `CC(=O)Oc1ccc(C(=O)Nc2ccc3ccc(Cl)nc3n2)cc1`: 220 °C. `CSc1ncc(Cc2ccccn2)c(=O)[nH]1` registered a melting point of 195 to 198 °C. The same measure for `CSc1nc(N)c(O)c(=O)[nH]1`: 243 to 245 °C; for `CC(C)(C)c1cc(C=O)c(O)c(Br)c1Cl`: 92 to 94 °C; for `N=C(NN)c1ccccc1C(=N)NN`: 251 to 253 °C. The same measure for `Cc1nc(N2CCN(Cc3ccc(F)cc3)C2=O)sc1C(=O)NCc1ccccn1`: 183 to 185 °C; for `COc1ccc(CCN2CCC(=C3c4ccccc4CCn4ncnc43)CC2)cc1`: 129 °C. The same measure for `CN(C)CCNC1=CC(=O)c2nc(-c3cc(F)ccc3F)oc2C1=O`: 162 to 163 °C; for `CCC(=O)c1cnc(C(=O)CC)cn1`: 112 °C. Compound `CCOC(=O)C1=Cc2cc(C#N)ccc2NC1C(F)(F)F` (centres undefined) gave a melting point of 211 to 212 °C.

For `CC(C)Cc1nc2sc3c(NCCN4CCOCC4)ncnc3c2c2c1CCC(C)(C)C2`, the melting point was determined as 190 °C. Turning to `Cc1nc2c(N)cc(Br)cc2n1C`, the melting point lay within 206 to 209 °C. The same measure for `COc1ccc(N2CCN(C[C@H]3COc4ccc5nc(C)ccc5c4O3)CC2)cc1`: 164 to 165 °C; for `NC(=O)c1ccnc(-c2cccc3cc(Cc4cccc(C(F)(F)F)c4)sc23)c1`: 177 to 178 °C. In turn, `CC(C)NC(=O)Nc1ccc([N+](=O)[O-])cc1O` came in with a melting point of 160 to 161 °C.

With `Cc1nc2ccccc2n(-c2ccc(Cl)cc2)c1=O`, the melting point lay in the range of 185 to 187 °C. The same measure for `CS(=O)(=O)c1ccc(-c2nn3c(-c4ccccc4)c(-c4ccccc4)oc3c2-c2ccc(F)cc2)cc1`: 228 to 229 °C. The same measure for `CC(C)(C)c1cc(CN(c2cccnc2)S(=O)(=O)c2ccc(F)cc2)cc(C(C)(C)C)c1O`: 137 to 138 °C; for `CSCc1cccc(CNC(=O)c2nc3scc(COCc4ccc(C(=O)O)cc4)c3c(=O)[nH]2)c1`: 222 to 223 °C; for `CCCCCCCCCCCCCCCCOC(=O)c1cc(C(=O)OCCCCCCCCCCCCCCCC)cc(S(=O)O)c1`: 63 to 65 °C.

In turn, `CC1CCC(=NC(=O)Nc2cccc(Cl)c2)N1C` (centres undefined) gave a melting point of 129 to 130 °C. Regarding `CN(C)C(=O)N1CC2(CCN(C(=O)Nc3nnc(-c4ccccc4)s3)CC2)c2ccccc21`, the melting point came to 267 °C. The same measure for `CCCn1c(=O)c2[nH]c(/C=C/c3cc(OC)c(OC)cc3Br)nc2n(CCC)c1=O`: 248 to 250 °C; for `CN(C)CCCn1nnc(-c2ccc3c(c2)S(=O)(=O)c2ccccc2C3=O)n1`: 141 to 142 °C; for `Cc1cnc(CCCC#N)c(N)c1`: 84 to 87 °C. As for `Cc1ccc(Cl)c(Nc2ccccc2C(N)=S)c1Cl`, the melting point lay within 134 to 136 °C. The same measure for `O=C(C=Cc1ccccn1)Nc1nnn[nH]1`: 275 to 276 °C. In turn, `COC(=O)c1ccc(Cn2ncc3ccc(NC(=O)CC4CCCC4)cc32)c(OC)c1` registered a melting point of 195 to 198 °C.

Turning to `O=C(NCCCCCCOC(=O)Oc1ccc([N+](=O)[O-])cc1)OC1CCN(C(=O)Oc2ccc(Oc3ccccc3)cc2)CC1`, the melting point lay in the range of 117 to 120 °C. The same measure for `CC(=O)Nc1cccc(OC(Cn2ccnc2)c2ccc(Cl)cc2Cl)c1` (centres undefined): 108 to 112 °C; for `CCOC(=O)CCCCc1oc(=O)[nH]c1-c1ccc(Cl)cc1`: 143 to 144 °C. `NCCCc1c[nH]c2ccc3c(=O)[nH]ccc3c12`: the melting point was 225 to 230 °C. The same measure for `Cc1cccc(C(=O)O)c1Nc1ccccc1C(=O)O`: 258 to 259 °C; for `COc1cc(C=CC(CCc2ccco2)=NO)ccc1O`: 110 to 120 °C; for `O=C1CCCC(=O)C1C(=O)c1ccc(C(F)(F)F)c(N2CCSCC2)n1`: 106 °C. The same measure for `CS(=O)(=O)N[C@@H]1CCCC[C@H]1Nc1nc(Nc2ccc3c(c2)CNCCS3)ncc1Cl`: 141 to 143 °C; for `Cn1cc(C2=C(c3c4n(c5ccccc35)CCC(C(N)=O)C4)C(=O)OC2=O)c2ccccc21` (centres undefined): 307 to 309 °C. The same measure for `c1ccc(CCn2cnc3cnc4ccccc4c32)cc1`: 105 to 108 °C; for `CCC1c2[nH]c3ccccc3c2CC(CO)N1C(=S)SC` (centres undefined): 170 to 172 °C; for `CSC(=S)C12CC3CC(CC(C3)C1)C2`: 64.5 to 66 °C.

Compound `CCOC(=O)c1nccc(NC=O)n1` displayed a melting point of 205 to 206 °C.

As for `CN(CCO)c1cc2c(=O)n(NS(C)(=O)=O)c(=O)[nH]c2cc1C(F)(F)F`, the melting point was 220 to 224 °C. The same measure for `CCCCc1nc2ccc(N(C)C(=O)NC)cc2n1Cc1ccc(-c2ccccc2C(=O)O)cc1`: 163 to 165 °C; for `CCOC(=O)C=CC=Cc1ccc(C=Cc2nc(-c3ccco3)oc2C)cc1`: 155 to 156 °C; for `Cc1cccc(COc2cccnc2NC(=N)Nc2ccc(Cl)cc2)c1F`: 179 to 181 °C. The same measure for `Cc1ccc(S(=O)(=O)N2CCN(S(=O)(=O)c3ccc(C)cc3)CC(=O)NCC(C3CCCCC3)NC(=O)CN(S(=O)(=O)c3ccc(C)cc3)CC2)cc1` (centres undefined): 224 °C; for `Nc1c(CC(=O)O)cccc1S(=O)(=O)c1ccccc1`: 218 to 220 °C; for `Cn1cc(Br)cc(Nc2ccc(OC3CN(C(=O)OC(C)(C)C)C3)cn2)c1=O`: 120 to 121 °C. The same measure for `Oc1ccc(CN2CCCCC2)c2cccnc12`: 96 °C; for `COC(=O)[C@H](CO)NC(=O)c1ncn2c1CN(C)C(=O)c1c(Cl)cccc1-2`: 178 to 180 °C; for `O=C1N[C@@H](C=Cc2ccccc2)[C@H]1O`: 143 to 144 °C. As to `CCOC(=O)C1=C(CC)NCN(c2ccc(Cl)cc2)C1=O`, the melting point fell in the range of 118 to 120 °C. The same measure for `COc1ccc(Cc2ccc(-c3cnn4c(O)ncnc34)cc2)cc1`: 296 to 298 °C; for `N#CC(=NOS(=O)(=O)c1ccc(C(=O)O)cc1)c1ccccc1`: 250 to 251 °C.

As for `CCCCCC(O)c1cccc(OCc2cccc(C(N)=O)c2)c1` (centres undefined), the melting point fell in the range of 97 to 98 °C. Turning to `Cc1c(C(F)(F)F)nn(C(C)C)c1O`, the melting point was in the range of 150 to 153 °C.

`CC(C)(C)c1ccc(S(=O)(=O)N2c3ccc(F)cc3CC2C(=O)NCCc2ccccc2)cc1` (centres undefined): the melting point fell in the range of 168 to 172 °C. The same measure for `CCNCC1(C)CN(c2c(F)cc3c(=O)c(C(=O)O)cn4c3c2OC[C@H]4C)C1`: 242 to 245 °C; for `Cc1cccc(S(=O)(=O)N2Cc3ccccc3C2)c1`: 175 to 177 °C; for `O=C(O)c1cn(C2CC2)c2cc(N3CC(O)C3)c(F)cc2c1=O`: 296 to 298 °C. The same measure for `CCOC(=O)NCC(=O)c1ccc(O)cc1`: 137 to 140 °C. The same measure for `CN1CCN(CC(=O)C2CC3c4cccc5[nH]cc(c45)CC3N(C)C2)CC1` (centres undefined): 198 to 202 °C; for `OCCCc1cc(Cl)cc2nc(Cc3ccccc3Cl)oc12`: 87 to 89 °C. With `Cc1ccc(C(=O)c2ccc3[nH]c(=O)nc(-c4cccc(Cl)c4)c3c2)cc1`, the melting point was 181 °C. `CS(=O)(=O)c1nccc(-c2nc(=O)c3ccccc3s2)n1`: the melting point worked out at 270 °C. The same measure for `CSc1ccc(-c2nn(Cc3ccc(Cl)cc3Cl)c(=S)cc2-c2ccc(F)cc2)cc1`: 154 °C; for `Oc1ccc(-c2cnc(S)o2)cc1O`: 215 to 218 °C. The same measure for `CC(C)N1NC(c2ccc(F)cc2)=c2cc(Cl)ccc2=CS1(=O)=O`: 147 to 151 °C; for `COn1c(=S)n(C)c(=O)c2ccccc21`: 184 °C; for `CCCc1cnc(-c2ccc(F)cc2)nc1`: 52.7 °C.

In turn, `COC(=O)c1ccc(CN(CC2CCOCC2)S(=O)(=O)c2ccc(Cl)cc2)cc1` registered a melting point of 115 to 117 °C. The same measure for `O=C(O)C=Cc1cccc(Oc2ccccc2)c1`: 107 to 109 °C; for `CC(C)(C)c1cc(-n2nc3ccc(Cl)cc3n2)c(O)c(C(C)(C)c2ccc(Cl)cc2)c1`: 130 to 131 °C. The same measure for `CCOC(=O)/C=C(C)/C=C/C1=C(c2ccc3c(c2)C(C)(C)CCC3(C)C)CCC1`: 83 to 86 °C.
